Laboratory results taken from patent publication US11181447B2, “Apparatus and method for determination of the fine particle dose of a powder inhalation formulation” (NANOPHARM LIMITED, priority 2016, dated 2021).

Assay: Paddle dissolution test (USP 711) of the aerosol dose collected on a filter in the apparatus of the invention
Format: physicochemical
Conditions: drug loading 50-500 μg, surface coverage 3.89-38.92 μg/cm^2; 1, 2, 5 and 10 actuations; DPI and MDI
Description: In accordance with one embodiment of the invention, collected particles are subjected to a dissolution test. Dissolution tests are widely practised in the art and the selection of suitable dissolution media and methods for particles collected from a given drug formulation are a routine matter for those skilled in the art. One such test, which may be expediently used, is the paddle dissolution test (US Pharmocopeial Convention 2011, 711, Dissolution, Paddle Apparatus). Illustrative commonly used dissolution media include e.g. phosphate buffered saline (PBS) solution either with or without the addition of a surfactant (e.g. Tween 20, Tween 80, SDS etc.). The solution can be chemically analysed, for example by HPLC, to determine the mass collected.
Collection of the samples of FIGS. 7A and 7B was accomplished in an apparatus according to FIG. 4 in which a glass microfibre filter (Pall Corporation, A/E filter) having a nominal filter pore size of 1 μm was used. The reference scale on each image of FIGS. 7A and 7B corresponds to 10 μm.
In each run, after the relevant number of doses had been delivered into the device, the filter was removed and the collected mass dissolved in phosphate buffered saline (PBS) solution using the paddle dissolution method (USP 711, 2011) and chemically analysed by HPLC to determine the mass collected. […]

- dependence of dissolution release profiles on drug loading: independent of drug loading
SMILES: CCC(=O)O[C@]1(C(=O)SCF)[C@H](C)C[C@H]2[C@@H]3C[C@H](F)C4=CC(=O)C=C[C@]4(C)[C@@]3(F)[C@@H](O)C[C@@]21C [fluticasone propionate]
